Results reported in patent US20260274876A1, “3-PYRROLIDINE-INDOLE DIMERS AS SEROTONERGIC AGENTS USEFUL FOR THE TREATMENT OF DISORDERS RELATED THERETO” (MINDSET PHARMA INC., priority 2022, published 2026).

Assays:
[1] = Intestinal mucosal permeation using Caco-2 cell monolayers; conditions: human; for Papp A→B at 2 h, 5 µM / Papp B→A at 2 h, 5 µM / efflux ratio at 2 h, 5 μM: Caco-2, pH 7.4
Method: Plate was returned to incubator.
Vortexed for 5 minutes. […] Incubated at 37° C. for 30 minutes.

[2] = Plasma stability, human; assay type: in vitro ADME
Method: (§1) • a. […] The final concentration of organic solvents was 0.5%. The assay was performed in duplicated. • b.
(§2) All calculations were carried out using Microsoft Excel.

[3] = Plasma stability, mouse; assay type: in vitro ADME
Method: as §1, §2

[4] = Plasma stability, rat; assay type: in vitro ADME
Method: as §1, §2

[5] = Liver microsomes stability, human; conditions: human liver microsomes, without cofactors, 60 min
Method: (§3) 40 μL of 10 mM NADPH solution was added to each well. The final concentration of NADPH was 1 mM. The negative control samples were prepared by replacing NADPH with 40 μL of ultra-pure H2O. Samples were prepared in duplicate. Negative controls were prepared in singlet.
(§4) This study was performed in duplicate.
(§5) LC/MS analysis was performed for all samples from this study using a Shimadzu liquid chromatograph separation system equipped with degasser DGU-20A5R; solvent delivery unit LC-30AD; system controller SIL-30AC; column oven CTO-30A; CTC Analytics HTC PAL System. Mass spectrometric analysis was performed using a Triple Quad™ 5500 instrument.
as §2
(§6) All calculations were carried out using Microsoft Excel. Peak areas were determined from extracted ion chromatograms.

[6] = Liver microsomes stability, rat; conditions: rat liver microsomes, 60 min
Method: as §3, §4, §5, §2, §6

[7] = Liver microsomes stability, mouse; conditions: mouse liver microsomes, 60 min
Method: as §3, §4, §5, §2, §6

[8] = biological target: human 5-HT2A receptor (Homo sapiens, UniProt P28223); assay: Human 5-HT2A radioligand binding assay ([3H]-ketanserin)
Method: The objective of this study was to evaluate the binding properties of exemplary compounds of Formula I on 5-hydroxytryptamine receptor 2A (5-HT2A).
• 1. The assay buffer was prepared following the table below.
• 2. 8 doses of reference and test compounds starting from 10 mM stock solution as required was prepared by 5-fold serial dilutions with 100% (v/v) DMSO. • 3. UniFilter-96 GF/B plate was pretreated: • i. 50 μl/well of 0.5% (v/v) PEI was added to […]. The plates were sealed and incubated at […] for 3 hrs. • ii. After incubation, the plates were washed 3 times with ice-cold wash buffer (50 mM Tris, pH7.4). • 4. The assay plate was prepared: • i. Cell membrane was diluted with assay buffer and 330 μl/well was added to 96 round deep well plates to reach a concentration of 20 μg/well. • ii. 8 concentrations of reference or test compounds were prepared and 110 μl/well was added to 96 round deep well plates. • iii. [3H]-ketanserin was diluted with assay buffer to 5 nM (5×final concentration) and 110 μl/well was added to 96 round deep well plates. • 5. The plate was centrifuged at 1000 rpm for 30 secs and then agitated at 600 rpm, R.T. for 5 min. • 6. The plates were sealed and the plate incubated at 279C for 90 min. • 7. The incubation was stopped by vacuum filtration onto GF/B filter plates followed by 4 times washing with ice-cold wash buffer (50 mM Tris, pH7.4). • 8. The plates were dried at 379C for 45 min. • 8. The filter plates were sealed and 40 μl/well of scintillation cocktail was added. • 10. The plate was read by using a Microbeta^2 microplate counter.
• 1. For reference and test compounds, the results were expressed as % Inhibition, using the normalization equation: N=100−100×(U−C2)/(C1−C2), where U is the unknown value, C1 is the average of high controls, and C2 is the average of low controls. • 2. The IC50 was determined by fitting percentage of inhibition as a function of compound concentrations with Hill equation using XLfit.

[9] = Caco-2, pH 7.4, Percentage recovery (%) A→B, Caco-2, A→B
[10] = Caco-2, pH 7.4, Percentage recovery (%) B→A, Caco-2, B→A
[11] = 37° C., N.A. = no peak detected at 30 min

human 5-HT2A receptor, sequence (P28223 whole entry): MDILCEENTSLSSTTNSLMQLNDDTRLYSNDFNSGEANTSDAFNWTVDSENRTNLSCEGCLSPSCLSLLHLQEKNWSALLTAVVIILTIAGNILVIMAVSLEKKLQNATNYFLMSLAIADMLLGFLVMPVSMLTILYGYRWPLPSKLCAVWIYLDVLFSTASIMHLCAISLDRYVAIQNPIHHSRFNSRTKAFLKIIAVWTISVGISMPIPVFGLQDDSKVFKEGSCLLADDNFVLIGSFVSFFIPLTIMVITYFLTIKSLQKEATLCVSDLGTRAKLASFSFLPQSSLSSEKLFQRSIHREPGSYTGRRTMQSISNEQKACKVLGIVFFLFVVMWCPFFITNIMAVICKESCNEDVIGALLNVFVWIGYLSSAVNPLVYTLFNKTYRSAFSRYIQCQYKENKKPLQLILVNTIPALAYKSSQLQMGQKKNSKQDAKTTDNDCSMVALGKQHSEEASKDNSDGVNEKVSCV

What does the source list for CC(C)NCC(O)COc1cccc2ccccc12 (stereo not shown) [Propranolol]?
Papp A→B at 2 h, 5 µM [1]: 33.5 ×10⁻⁶ cm/s; Papp B→A at 2 h, 5 µM [1]: 23.1 ×10⁻⁶ cm/s; efflux ratio at 2 h, 5 μM [1]: 0.69; recovery at 2 h, 5 μM [1, 9]: 91.3%; recovery at 2 h, 5 μM [1, 10]: 92.6%

For CC(C)[N+](C)(CCOC(=O)C1c2ccccc2Oc2ccccc21)C(C)C [Propantheline, reference compound], which “Remaining Percentage (%) 0 min” value ([2]; 0 min) is on record?
The value was 100.00%.

And the half-life at 5 μM [2, 11]?
The half-life at 5 μM was 9.53 min.

And the “Remaining Percentage (%) 30 min” value ([2]; 30 min)?
Its value is 18.68%.

What about the “Remaining Percentage (%) 60 min” value ([2]; 60 min) of the same compound?
Its value is 1.28%.

What about the “Remaining Percentage (%) 0 min” value ([3]; 0 min) of the same compound?
The value was 100.00%.

And the half-life at 5 μM [3, 11]?
Its half-life at 5 μM is 34.4 min.

And the “Remaining Percentage (%) 30 min” value ([3]; 30 min)?
The value was 65.32%.

And the “Remaining Percentage (%) 60 min” value ([3]; 60 min)?
The value was 32.49%.

And the “Remaining Percentage (%) 120 min” value ([3]; 120 min)?
Its value is 9.12%.

And the “Remaining Percentage (%) 180 min” value ([3]; 180 min)?
Its value is 2.90%.

And the “Remaining Percentage (%) 240 min” value ([3]; 240 min)?
Its value is 0.87%.

What does the source list for CC[C@H](C)C(=O)O[C@H]1C[C@@H](C)C=C2C=C[C@H](C)[C@H](CC[C@@H]3C[C@@H](O)CC(=O)O3)[C@H]21 [Lovastatin, reference compound]?
Remaining Percentage (%) 0 min ([4]; 0 min): 100.00%; Remaining Percentage (%) 30 min ([4]; 30 min): 0.00%; Remaining Percentage (%) 60 min ([4]; 60 min): 0.00%; Remaining Percentage (%) 120 min ([4]; 120 min): 0.00%; Remaining Percentage (%) 180 min ([4]; 180 min): 0.00%; Remaining Percentage (%) 240 min ([4]; 240 min): 0.00%

For C[C@H]1O[C@@H](O[C@H]2[C@@H](O)C[C@H](O[C@H]3[C@@H](O)C[C@H](O[C@H]4CC[C@@]5(C)[C@H](CC[C@@H]6[C@@H]5C[C@@H](O)[C@]5(C)[C@@H](C7=CC(=O)OC7)CC[C@]65O)C4)O[C@@H]3C)O[C@@H]2C)C[C@H](O)[C@@H]1O [Digoxin], which Papp A→B at 2 h, 5 µM [1] is on record?
The Papp A→B at 2 h, 5 µM was 0.53 ×10⁻⁶ cm/s.

What about the Papp B→A at 2 h, 5 µM [1] of the same compound?
The Papp B→A at 2 h, 5 µM was 18.9 ×10⁻⁶ cm/s.

What about the efflux ratio at 2 h, 5 μM [1] of the same compound?
The efflux ratio at 2 h, 5 μM was 35.4.

And the recovery at 2 h, 5 μM [1, 9]?
The recovery at 2 h, 5 μM was 86.6%.

What about the recovery at 2 h, 5 μM [1, 10] of the same compound?
The recovery at 2 h, 5 μM was 104%.

With O=C(O)Cc1ccccc1Nc1c(Cl)cccc1Cl [Diclofenac, reference compound] as the compound, how does the “Remaining Percentage (%) after 60 min, Human, Without cofactors” value [5] read?
Its value is 95.90%.

What about the “Remaining Percentage (%) after 60 min, Rat, With cofactors” value ([6]; with cofactors) of the same compound?
Its value is 7.11%.

And the “Remaining Percentage (%) after 60 min, Rat, Without cofactors” value ([6]; without cofactors)?
Its value is 97.86%.

And the “Remaining Percentage (%) after 60 min, Mouse, With cofactors” value ([7]; with cofactors)?
Its value is 35.94%.

And the “Remaining Percentage (%) after 60 min, Mouse, Without cofactors” value ([7]; without cofactors)?
The value was 97.86%.

What does the source list for COc1cc2nc(N3CCN(C(=O)c4ccco4)CC3)nc(N)c2cc1OC [Prazosin]?
Papp A→B at 2 h, 5 µM [1]: 10.1 ×10⁻⁶ cm/s; Papp B→A at 2 h, 5 µM [1]: 33.1 ×10⁻⁶ cm/s; efflux ratio at 2 h, 5 μM [1]: 3.28; recovery at 2 h, 5 μM [1, 9]: 79.5%; recovery at 2 h, 5 μM [1, 10]: 105%

Which IC50 [8] does the source give for CN(C)CCc1c[nH]c2cccc(OP(=O)(O)O)c12 [Psilocybin, 4-phosphoryloxy-N,N-dimethyltrypatmine] here?
Its IC50 is 4.25 µM.

What about the Papp A→B at 2 h, 5 µM [1] of the same compound?
The Papp A→B at 2 h, 5 µM was 0.06 ×10⁻⁶ cm/s.

What about the Papp B→A at 2 h, 5 µM [1] of the same compound?
Its Papp B→A at 2 h, 5 µM is 0.03 ×10⁻⁶ cm/s.

What about the efflux ratio at 2 h, 5 μM [1] of the same compound?
The efflux ratio at 2 h, 5 μM was 0.45.

And the recovery at 2 h, 5 μM [1, 9]?
The recovery at 2 h, 5 μM was 41.4%.

What about the recovery at 2 h, 5 μM [1, 10] of the same compound?
Its recovery at 2 h, 5 μM is 104%.
